Where two headings read alike, the source gives them in different places. Where a SMILES comes first, the peptide text is derived from it. The star is where a group is joined. Cbz = O=C(OCc1ccccc1)*; CHN2 = [N-]=[N+]=C*; tBu = CC(C)(C)*

This is an account of results in article PMC9161972 (Journal of Medical Virology, 2022).

One series is described as follows: in vitro. As to conditions: human.
For series [1], the system named is HIV/EBOV pseudovirus (Ebola virus Zaire Mayinga glycoprotein). Nature of the series: organism not typed. Format: cell-based. As to conditions: for IC50: read-out: IC50 HIV/EBOV.
In series [2] the test system is HIV/MARV pseudovirus (Marburg virus Musoke glycoprotein). Nature of the series: organism not typed. It counts as cell-based. As to conditions: for IC50: read-out: IC50 HIV/MARV.
Series [3] relates to HIV/MLAV pseudovirus (Měnglà virus glycoprotein). Nature of the series: organism not typed. Format: cell-based. Conditions: for IC50: read-out: IC50 HIV/MLAV.
Series [4] concerns HIV/VSV pseudovirus (control). Format: cell-based, vesicular stomatitis virus.
In another series the test system is MLAV. As to conditions: cited from earlier work.

Consider `CC(C)[C@H](NC(=O)OCc1ccccc1)C(=O)N[C@H](C=O)Cc1ccccc1` [MDL‐28170] (Cbz-Val-Phe-aldehyde), for which the CC50 in the series “in vitro” was > 100 µM. In series [1], the “inhibition of EBOV pseudovirus entry (in words)” value was “can block”. In addition, the IC50 in series [1] (A549, 48 h) was 1.44 ± 0.2 µM; in series [2] (A549, 48 h) it was 1.69 ± 0.46 µM; in series [3] (A549, 48 h), 9.46 ± 1.69 µM. In addition, in series [2], the “inhibition of MARV pseudovirus entry (in words)” value is “can block”. Further, the “inhibition of MLAV pseudovirus entry (in words)” value in series [3] was “can block”.

Regarding `CC(C)(C)Oc1ccc(C[C@H](NC(=O)[C@H](Cc2ccccc2)NC(=O)OCc2ccccc2)C(=O)C=[N+]=[N-])cc1` [Cathepsin L Inhibitor III] (Cbz-Phe-Tyr(tBu)-CHN2), the CC50 with A549 cells is > 100 µM. The “inhibition of VSV pseudovirus entry at 100 µM (in words)” value in series [4] is “no inhibition”. Besides, the IC50 in series [1] is 0.75 ± 0.19 µM; in series [2], 2.38 ± 0.4 µM; in series [3] it was 7.14 ± 1.5 µM.

As to `CCCNC(=O)[C@H]1O[C@@H]1C(=O)N[C@H](C(=O)N1CCC[C@H]1C(=O)O)[C@@H](C)CC` [CA‐074], in the series on A549 cells, the CC50 is > 100 µM. Moreover, in series [4], the “inhibition of VSV pseudovirus entry at 100 µM (in words)” value is recorded as “resistant”. In addition, the IC50 in series [1] is 28.4 ± 6.56 µM; in series [2] it was > 100 µM; in series [3], > 100 µM. Besides, the “inhibition of MARV pseudovirus entry at 100 µM (in words)” value in series [2] (at 100 µM) is recorded as “resistant”. In addition, in series [3] (at 100 µM), the “inhibition of MLAV pseudovirus entry at 100 µM (in words)” value is reported as “resistant”.

`CN(C)CCCN1c2ccccc2CCc2ccccc21` [Imipramine] came in with a CC50 in “in vitro” of 76.3 ± 7.4 µM. For the same compound, the IC50 in series [1] (A549, 48 h) stood at 2 ± 0.65 µM; in series [2] (A549, 48 h), 5.55 ± 1.12 µM; in series [3] (A549, 48 h), 7.91 ± 0.81 µM.

The compound `CNCCC(Oc1ccc(C(F)(F)F)cc1)c1ccccc1` (centres unmarked) [Fluoxetine] showed a CC50 in the series “in vitro” of 28.7 ± 0.1 µM.

With `CC(=O)N[C@@H](CC(C)C)C(=O)N[C@@H](CC(C)C)C(=O)N[C@H](C=O)CCCNC(=N)N` [Leupeptin], in “in vitro”, the CC50 is > 100 µM. Moreover, in series [4], the “inhibition of VSV pseudovirus entry (in words)” value is recorded as “ineffective”. In addition, the IC50 in series [1] (A549, 48 h) is 0.41 ± 0.04 µM; in series [2] (A549, 48 h), 0.92 ± 0.27 µM; in series [3] (A549, 48 h) it was 1.24 ± 0.29 µM.

Turning to `CN1[C@@H]2CC[C@H]1C[C@@H](OC(c1ccccc1)c1ccccc1)C2` [Benztropine], in “in vitro”, the CC50 came to 54.5 ± 2 µM.

`CCCCOc1cc(C(=O)NCCN(CC)CC)c2ccccc2n1` [Dibucaine] had a CC50 in the series “in vitro” of 51.3 ± 1.2 µM. The IC50 in series [1] (A549, 48 h) is 2.93 ± 1.04 µM; in series [2] (A549, 48 h) it was 5.82 ± 0.37 µM; in series [3] (A549, 48 h) it was 10.8 ± 1.68 µM.

Regarding `NCCc1ccc(S(=O)(=O)F)cc1` [AEBSF], the CC50 in the series on A549 cells is ~100 µM. Moreover, in series [1], the “inhibition of EBOV pseudovirus entry (in words)” value is “limited inhibition” and the IC50 was determined as 19.1 ± 0.58 µM. For the same compound, in series [2], the “inhibition of MARV pseudovirus entry (in words)” value is on record as “limited inhibition” and the IC50 is 29 ± 1.7 µM. In series [3], the “inhibition of MLAV pseudovirus entry (in words)” value was “unable to effectively inhibit” and the IC50 was 36.7 ± 10.4 µM.

Compound `Fc1ccc([C@@H]2CCNC[C@H]2COc2ccc3c(c2)OCO3)cc1` [Paroxetine] had a CC50 in the series “in vitro” of 23.6 ± 2.5 µM. The IC50 worked out at 0.36 ± 0.4 µM in series [1] (A549, 48 h); 1.83 ± 0.66 µM in series [2] (A549, 48 h); 4.88 ± 1.7 µM in series [3] (A549, 48 h). Besides, the “selectivity index (SI) with MLAV” value in series [3] is 5.

In the case of `CN(C)CCOc1ccc(/C(=C(/CCCl)c2ccccc2)c2ccccc2)cc1` [Toremifene], in “in vitro”, the CC50 came to 25.3 ± 1.6 µM. In addition, the IC50 in series [1] (A549, 48 h) was determined as 0.06 ± 0.05 µM; in series [2] (A549, 48 h), 1.75 ± 0.86 µM; in series [3] (A549, 48 h) it was 3.63 ± 0.72 µM. Moreover, the “inhibition of MLAV (in words)” value in the series on MLAV is reported as “inhibited MLAV”.

Compound `CC(C)COCC(CN(Cc1ccccc1)c1ccccc1)N1CCCC1` (centres unmarked) [Bepridil] came in with a CC50 in the series “in vitro” of 34.7 ± 4.6 µM. Moreover, the IC50 in series [1] (A549, 48 h) was 3.27 ± 0.4 µM; in series [2] (A549, 48 h), 7.37 ± 0.9 µM; in series [3] (A549, 48 h) it was 9.74 ± 0.94 µM.

The compound `CN[C@H]1CC[C@@H](c2ccc(Cl)c(Cl)c2)c2ccccc21` [Sertraline] came in with a CC50 in “in vitro” of 15 ± 0.9 µM.
